The target of experiment [1] is T1, S-ribosylhomocysteine lyase (Escherichia coli K-12) (UniProt P45578).
T1 sequence (whole entry): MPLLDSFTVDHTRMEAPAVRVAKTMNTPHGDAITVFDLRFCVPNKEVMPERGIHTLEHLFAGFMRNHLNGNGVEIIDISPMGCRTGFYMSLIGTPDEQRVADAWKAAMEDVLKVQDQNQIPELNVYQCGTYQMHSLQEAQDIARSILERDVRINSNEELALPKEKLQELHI
The experiment can be described thus: Inhibition of Escherichia coli LuxS using S-ribosyl-homocysteine substrate at pH 7 after 10 mins by fluorimetric assay.

Experiment [2] concerns the target T1, S-ribosylhomocysteine lyase (Escherichia coli K-12). As to the kind of experiment: Inhibition of Escherichia coli LuxS assessed as formation of enzyme-adduct formation by mass spectrometry.
For experiment [3] the target is unchanged. As to the kind of experiment: Inhibition of Escherichia coli LuxS assessed as induction of covalent modification by UV/Vis absorbance spectroscopy.
Experiment [4] has the same target. The experiment can be described thus: Inhibition of Escherichia coli LuxS using variable levels of S-ribosyl-homocysteine substrate at pH 7 after 10 mins by fluorimetric assay.
The target is the same in experiment [5]. As to the kind of experiment: Inhibition of Escherichia coli LuxS using variable levels of S-ribosyl-homocysteine substrate by UV/Vis absorbance spectroscopy. The note with it: TDE = time-dependent effect.
Experiment [6] shares this target. As to the kind of experiment: Inhibition of Escherichia coli LuxS assessed as induction of Cys126 alkylation by MALDI-MS method.

SMILES strings stand for the structures. Activity calls are given as the source filed them. The rule behind the calls is not given here.

As to `CCCCC1=CC(=C(Br)Br)OC1=O`, in experiment [1], the inhibition result is “Active”.

Consider `CCCCC1=C(Br)/C(=C/Br)OC1=O`, for which the inhibition entry in experiment [2], in experiment [3], in experiment [4] and in experiment [6] was “Active” throughout. Besides, the values for the inhibition result in experiment [1] and in experiment [5] were “Dose-dependent effect” and “tde”, respectively.

Regarding `O=C1C=CC(=C(Br)Br)O1`, in experiment [1], the inhibition result is “Active”.

On to `O=C1C=C/C(=C/Br)O1`, for which, in experiment [1], the inhibition result is “Dose-dependent effect”.

Source of the values: ChEMBL document CHEMBL1154301, “A naturally occurring brominated furanone covalently modifies and inactivates LuxS” (Bioorg Med Chem Lett, 2009).
